The values that follow come from publication PMC6437697 (Journal of Medicinal Chemistry, 2019).

What all share (assay type): binding
One experiment deals with T1, TAOK3 (Homo sapiens, UniProt Q9H2K8).
T1 construct: purchased Eurofins DiscoverX KINOMEscan
T1 sequence (Q9H2K8 1-898): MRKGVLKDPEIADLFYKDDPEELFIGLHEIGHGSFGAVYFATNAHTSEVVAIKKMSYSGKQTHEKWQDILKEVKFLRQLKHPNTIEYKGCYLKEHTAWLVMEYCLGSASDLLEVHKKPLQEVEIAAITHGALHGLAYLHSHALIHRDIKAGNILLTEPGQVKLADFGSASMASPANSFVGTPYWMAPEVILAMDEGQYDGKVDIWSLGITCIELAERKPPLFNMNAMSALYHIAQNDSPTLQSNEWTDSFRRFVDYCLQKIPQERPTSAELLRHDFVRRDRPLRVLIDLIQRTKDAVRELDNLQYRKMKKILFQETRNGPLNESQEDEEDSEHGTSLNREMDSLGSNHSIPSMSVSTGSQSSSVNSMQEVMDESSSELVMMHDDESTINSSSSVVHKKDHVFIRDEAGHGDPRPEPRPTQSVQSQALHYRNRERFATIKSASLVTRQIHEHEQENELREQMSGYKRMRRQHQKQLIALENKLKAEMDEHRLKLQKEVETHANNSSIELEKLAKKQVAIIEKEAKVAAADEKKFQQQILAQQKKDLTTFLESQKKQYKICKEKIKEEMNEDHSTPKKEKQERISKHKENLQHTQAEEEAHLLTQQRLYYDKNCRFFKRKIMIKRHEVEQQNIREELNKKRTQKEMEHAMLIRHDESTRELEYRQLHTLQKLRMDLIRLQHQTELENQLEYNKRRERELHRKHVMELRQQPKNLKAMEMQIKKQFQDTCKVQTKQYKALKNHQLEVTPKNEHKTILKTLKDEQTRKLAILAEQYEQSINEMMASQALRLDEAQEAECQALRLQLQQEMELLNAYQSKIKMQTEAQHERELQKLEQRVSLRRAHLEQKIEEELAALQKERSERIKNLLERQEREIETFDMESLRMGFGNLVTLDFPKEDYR
Kind of experiment: KINOMEscan. The note with it: read-out: % control activity remaining.

The target of the next experiment is T2, CSNK1E (Homo sapiens, UniProt P49674).
T2 construct: purchased Eurofins DiscoverX KINOMEscan
T2 sequence (P49674 whole entry): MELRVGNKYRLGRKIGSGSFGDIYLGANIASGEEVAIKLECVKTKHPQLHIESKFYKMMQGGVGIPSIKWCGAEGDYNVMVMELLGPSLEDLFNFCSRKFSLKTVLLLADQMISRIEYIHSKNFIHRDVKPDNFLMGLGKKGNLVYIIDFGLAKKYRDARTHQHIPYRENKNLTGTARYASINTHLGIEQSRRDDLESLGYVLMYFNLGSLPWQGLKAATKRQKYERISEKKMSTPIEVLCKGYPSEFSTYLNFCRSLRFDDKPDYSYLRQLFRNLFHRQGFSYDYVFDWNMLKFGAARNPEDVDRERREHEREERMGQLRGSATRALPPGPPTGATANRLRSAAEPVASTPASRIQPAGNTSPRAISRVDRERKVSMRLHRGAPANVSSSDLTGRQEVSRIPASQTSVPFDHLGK
As to the kind of experiment: KINOMEscan. The note with it: read-out: % control activity remaining.

A further experiment addresses T3, NEK5 (Homo sapiens, UniProt Q6P3R8).
T3 construct: purchased Eurofins DiscoverX KINOMEscan
T3 sequence (Q6P3R8 1-708): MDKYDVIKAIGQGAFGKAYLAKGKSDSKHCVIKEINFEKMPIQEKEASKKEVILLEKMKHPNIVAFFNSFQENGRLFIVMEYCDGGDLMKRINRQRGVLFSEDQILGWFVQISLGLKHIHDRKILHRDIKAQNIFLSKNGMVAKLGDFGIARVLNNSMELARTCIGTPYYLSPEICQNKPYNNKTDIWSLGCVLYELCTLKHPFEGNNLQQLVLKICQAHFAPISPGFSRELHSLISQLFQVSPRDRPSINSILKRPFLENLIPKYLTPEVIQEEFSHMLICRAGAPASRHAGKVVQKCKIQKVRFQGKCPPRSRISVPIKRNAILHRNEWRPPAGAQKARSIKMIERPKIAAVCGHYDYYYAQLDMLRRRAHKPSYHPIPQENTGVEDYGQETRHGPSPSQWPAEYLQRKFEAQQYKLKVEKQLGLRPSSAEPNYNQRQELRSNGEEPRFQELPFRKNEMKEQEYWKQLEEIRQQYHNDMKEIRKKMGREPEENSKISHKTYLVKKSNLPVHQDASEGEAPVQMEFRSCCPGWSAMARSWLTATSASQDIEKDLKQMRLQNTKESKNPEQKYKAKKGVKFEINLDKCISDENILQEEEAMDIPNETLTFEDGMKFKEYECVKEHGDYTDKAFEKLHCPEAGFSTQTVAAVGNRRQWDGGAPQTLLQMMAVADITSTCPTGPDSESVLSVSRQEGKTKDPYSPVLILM
Kind of experiment: KINOMEscan. As to conditions: read-out: % control activity remaining.

The next experiment concerns the target T4, MKK7 (Homo sapiens, UniProt O14733).
T4 construct: purchased Eurofins DiscoverX KINOMEscan
T4 sequence (O14733 1-419): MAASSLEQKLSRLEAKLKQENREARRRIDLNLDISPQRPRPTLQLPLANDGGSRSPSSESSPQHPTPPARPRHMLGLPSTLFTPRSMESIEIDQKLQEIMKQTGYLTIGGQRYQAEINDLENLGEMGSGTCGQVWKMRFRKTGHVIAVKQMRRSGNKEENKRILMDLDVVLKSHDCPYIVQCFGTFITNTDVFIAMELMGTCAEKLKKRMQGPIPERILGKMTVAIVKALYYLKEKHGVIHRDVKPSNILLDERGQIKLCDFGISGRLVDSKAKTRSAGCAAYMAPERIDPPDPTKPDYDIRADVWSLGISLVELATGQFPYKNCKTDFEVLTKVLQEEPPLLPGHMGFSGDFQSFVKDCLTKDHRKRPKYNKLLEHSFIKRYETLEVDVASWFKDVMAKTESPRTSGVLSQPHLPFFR
As to the kind of experiment: KINOMEscan. As to conditions: read-out: % control activity remaining.

A further experiment concerns the target T5, CSNK1G2 (Homo sapiens, UniProt P78368).
T5 construct: purchased Eurofins DiscoverX KINOMEscan
As to the kind of experiment: KINOMEscan. As to conditions: read-out: % control activity remaining.

The test system of experiment [1] is 455 wild-type and mutant human protein and lipid kinases. As to the kind of experiment: KINOMEscan panel summary. As to conditions: 1 μM.
The next experiment has as its target T6, ERK2 (Homo sapiens, UniProt P28482).
T6 construct: purchased Eurofins DiscoverX KINOMEscan
As to the kind of experiment: KINOMEscan. As to conditions: read-out: % control activity remaining.

Another experiment deals with T7, AKT3 (Homo sapiens, UniProt Q9Y243).
T7 construct: purchased Eurofins DiscoverX KINOMEscan
T7 sequence (Q9Y243 whole entry): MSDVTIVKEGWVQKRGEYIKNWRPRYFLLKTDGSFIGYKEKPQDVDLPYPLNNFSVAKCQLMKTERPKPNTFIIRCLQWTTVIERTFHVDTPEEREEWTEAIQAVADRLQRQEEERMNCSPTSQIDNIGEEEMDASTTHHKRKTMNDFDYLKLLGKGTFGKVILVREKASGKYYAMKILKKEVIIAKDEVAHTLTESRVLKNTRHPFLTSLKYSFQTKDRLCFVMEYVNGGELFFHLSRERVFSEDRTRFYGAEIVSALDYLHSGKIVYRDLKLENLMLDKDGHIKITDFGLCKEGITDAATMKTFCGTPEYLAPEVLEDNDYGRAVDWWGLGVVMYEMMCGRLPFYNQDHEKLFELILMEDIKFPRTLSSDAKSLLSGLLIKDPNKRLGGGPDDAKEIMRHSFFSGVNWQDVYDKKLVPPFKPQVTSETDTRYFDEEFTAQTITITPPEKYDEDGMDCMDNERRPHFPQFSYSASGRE
As to the kind of experiment: KINOMEscan. The note with it: read-out: % control activity remaining.

Another experiment has as its target T8, ERBB3 (Homo sapiens, UniProt P21860).
T8 construct: purchased Eurofins DiscoverX KINOMEscan
As to the kind of experiment: KINOMEscan. The note with it: read-out: % control activity remaining.

A further experiment addresses T9, MEK1 (Homo sapiens, UniProt Q02750).
T9 construct: purchased Eurofins DiscoverX KINOMEscan
Kind of experiment: KINOMEscan. As to conditions: read-out: % control activity remaining.

Another experiment deals with T10, TSSK1B (Homo sapiens, UniProt Q9BXA7).
T10 construct: purchased Eurofins DiscoverX KINOMEscan
T10 sequence (Q9BXA7 1-367): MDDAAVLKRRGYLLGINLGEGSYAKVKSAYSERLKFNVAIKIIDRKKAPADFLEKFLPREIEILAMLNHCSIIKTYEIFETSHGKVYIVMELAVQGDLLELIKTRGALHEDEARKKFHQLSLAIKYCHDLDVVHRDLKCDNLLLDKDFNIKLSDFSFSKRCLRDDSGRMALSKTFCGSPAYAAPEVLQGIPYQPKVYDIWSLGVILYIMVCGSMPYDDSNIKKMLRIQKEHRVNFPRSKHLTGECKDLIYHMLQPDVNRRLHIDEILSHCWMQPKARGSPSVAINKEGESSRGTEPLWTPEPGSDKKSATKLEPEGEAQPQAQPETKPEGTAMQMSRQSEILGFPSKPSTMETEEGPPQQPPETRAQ
As to the kind of experiment: KINOMEscan. The note with it: read-out: % control activity remaining.

T6 sequence (P28482 whole entry): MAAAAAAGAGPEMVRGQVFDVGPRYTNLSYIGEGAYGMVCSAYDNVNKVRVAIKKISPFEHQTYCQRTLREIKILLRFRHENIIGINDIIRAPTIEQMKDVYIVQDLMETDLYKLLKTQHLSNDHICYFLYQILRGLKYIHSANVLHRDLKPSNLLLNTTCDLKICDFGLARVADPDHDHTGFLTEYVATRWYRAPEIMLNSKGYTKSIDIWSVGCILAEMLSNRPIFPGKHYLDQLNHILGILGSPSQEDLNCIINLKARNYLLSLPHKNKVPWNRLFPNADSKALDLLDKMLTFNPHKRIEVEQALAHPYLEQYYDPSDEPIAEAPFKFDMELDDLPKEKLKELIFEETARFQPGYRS
T8 sequence (P21860 20-1342): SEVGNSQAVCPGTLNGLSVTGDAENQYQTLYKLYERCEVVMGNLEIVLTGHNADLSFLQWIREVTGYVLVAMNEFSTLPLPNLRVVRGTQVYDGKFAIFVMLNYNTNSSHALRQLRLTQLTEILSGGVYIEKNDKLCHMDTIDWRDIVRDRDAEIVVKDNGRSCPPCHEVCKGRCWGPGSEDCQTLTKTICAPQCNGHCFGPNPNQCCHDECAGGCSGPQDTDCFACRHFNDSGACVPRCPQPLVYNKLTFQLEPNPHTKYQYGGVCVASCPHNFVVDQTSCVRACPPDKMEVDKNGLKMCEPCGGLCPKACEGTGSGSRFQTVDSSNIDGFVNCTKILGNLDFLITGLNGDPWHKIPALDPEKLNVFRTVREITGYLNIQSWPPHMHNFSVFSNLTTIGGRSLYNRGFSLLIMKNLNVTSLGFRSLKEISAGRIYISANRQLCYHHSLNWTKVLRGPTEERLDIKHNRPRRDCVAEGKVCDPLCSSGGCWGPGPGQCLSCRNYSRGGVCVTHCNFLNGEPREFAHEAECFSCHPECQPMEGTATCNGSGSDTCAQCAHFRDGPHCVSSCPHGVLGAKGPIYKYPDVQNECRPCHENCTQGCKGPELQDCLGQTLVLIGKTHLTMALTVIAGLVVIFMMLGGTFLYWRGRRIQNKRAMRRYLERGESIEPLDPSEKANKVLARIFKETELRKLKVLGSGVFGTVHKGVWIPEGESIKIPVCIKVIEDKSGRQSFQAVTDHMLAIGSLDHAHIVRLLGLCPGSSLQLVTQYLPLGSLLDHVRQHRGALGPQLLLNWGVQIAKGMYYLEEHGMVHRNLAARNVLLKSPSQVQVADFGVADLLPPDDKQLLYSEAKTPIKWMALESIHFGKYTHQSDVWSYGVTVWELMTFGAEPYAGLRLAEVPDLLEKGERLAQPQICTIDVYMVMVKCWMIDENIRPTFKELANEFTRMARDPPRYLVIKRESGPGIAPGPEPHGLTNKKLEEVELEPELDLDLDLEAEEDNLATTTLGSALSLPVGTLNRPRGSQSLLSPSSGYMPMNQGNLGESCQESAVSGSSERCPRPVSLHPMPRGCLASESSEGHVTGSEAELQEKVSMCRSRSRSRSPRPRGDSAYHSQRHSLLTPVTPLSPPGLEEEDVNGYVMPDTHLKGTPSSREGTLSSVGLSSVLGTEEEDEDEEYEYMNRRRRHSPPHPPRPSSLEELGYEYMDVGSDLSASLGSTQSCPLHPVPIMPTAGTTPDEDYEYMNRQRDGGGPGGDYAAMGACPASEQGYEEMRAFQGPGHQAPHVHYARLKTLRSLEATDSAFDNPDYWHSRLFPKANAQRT
T5 sequence (P78368 whole entry): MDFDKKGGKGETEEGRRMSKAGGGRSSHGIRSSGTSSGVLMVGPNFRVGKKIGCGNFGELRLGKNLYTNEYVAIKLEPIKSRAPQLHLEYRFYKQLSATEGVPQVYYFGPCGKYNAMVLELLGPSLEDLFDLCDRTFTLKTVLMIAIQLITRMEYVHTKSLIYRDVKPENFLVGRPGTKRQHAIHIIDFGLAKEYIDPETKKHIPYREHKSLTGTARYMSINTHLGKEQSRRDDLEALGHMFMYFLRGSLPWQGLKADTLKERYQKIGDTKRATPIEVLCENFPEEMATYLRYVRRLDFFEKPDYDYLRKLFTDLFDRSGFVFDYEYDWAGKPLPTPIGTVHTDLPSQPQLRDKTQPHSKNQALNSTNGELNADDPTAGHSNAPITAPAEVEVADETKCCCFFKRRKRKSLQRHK
T9 sequence (Q02750 whole entry): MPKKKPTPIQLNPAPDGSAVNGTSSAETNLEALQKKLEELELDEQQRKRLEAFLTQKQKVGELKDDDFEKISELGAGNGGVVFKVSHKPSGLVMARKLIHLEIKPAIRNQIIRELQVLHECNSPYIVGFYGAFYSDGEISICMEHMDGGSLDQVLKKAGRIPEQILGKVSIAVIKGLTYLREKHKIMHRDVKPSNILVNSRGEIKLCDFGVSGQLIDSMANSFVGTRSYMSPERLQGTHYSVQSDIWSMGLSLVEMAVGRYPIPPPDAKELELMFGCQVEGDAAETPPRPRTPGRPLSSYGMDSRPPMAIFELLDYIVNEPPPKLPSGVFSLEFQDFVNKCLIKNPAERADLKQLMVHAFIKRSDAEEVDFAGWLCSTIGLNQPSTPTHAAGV

Turning to `Clc1cc(NCC2CC2)c2ncc(-c3ccc4[nH]ncc4c3)n2n1` [compound 2, 6-Chloro-N-(cyclopropylmethyl)-3-(1H-indazol-5-yl)imidazo[1,2-b]pyridazin-8-amine], the remaining binding at 1 µM amounted to 92% at TAOK3; 71% on CSNK1E; 93% at NEK5; 92% on MKK7; 100% at CSNK1G2; 92% on ERK2. Moreover, the remaining binding at 1 µM worked out at 100% on AKT3, 96% at ERBB3, 95% on MEK1 and 100% at TSSK1B. Also, the “kinases with >70% inhibition / wild-type and mutant kinases tested” value in [1] is 26/455.
As for `O=C(CN1CCOCC1)N[C@H]1CC[C@H](Nc2cc(Cl)nn3c(-c4ccc5[nH]ncc5c4)cnc23)CC1` [compound 26], the remaining binding at 1 µM at TAOK3 came out at 91%; on CSNK1E, 44%; at NEK5, 86%; at MKK7 it was 100%; on CSNK1G2 it was 95%; on ERK2, 93%. In addition, the remaining binding at 1 µM at AKT3 was 100%; at ERBB3 it was 99%; at MEK1, 93%; at TSSK1B, 92%. Moreover, the “kinases with >70% inhibition / wild-type and mutant kinases tested” value in experiment [1] is 54/455.
Regarding `CN1CCC(CNc2cc(Cl)nn3c(-c4cc5nc(Nc6ccccc6)[nH]c5cc4F)cnc23)CC1` [compound 31, 6-Chloro-3-(6-fluoro-2-(phenylamino)-1H-benzo[d]imidazol-5-yl)-N-((1-methylpiperidin-4-yl)methyl)imidazo[1,2-b]pyridazin-8-amine], the remaining binding at 1 µM on TAOK3 came to 77%; on CSNK1E, 100%; at NEK5 it was 96%; on MKK7, 93%; at CSNK1G2, 96%; at ERK2, 99%. Also, the remaining binding at 1 µM amounted to 90% on AKT3, 71% at ERBB3, 80% at MEK1 and 88% at TSSK1B. Also, the “kinases with >70% inhibition / wild-type and mutant kinases tested” value in experiment [1] was 4/455.
